Results published in patent publication US6034120A, “Insect antifeedant for agriculture” (Morita Kaguku Kogyo Co., Ltd., priority 1997, dated 2000).
Entries after “also recorded” stand apart in the source; their conditions may differ.

Tests used:
[1] = tested on: Spodoptera litura FABRICIUS; experiment: antifeeding effect by the leaf disk method (antifeedant index); type: in vivo, Spodoptera litura FABRICIUS larvae, third or fourth instar; set-up: key to Antifeedant index (AFI): AFI = 100×T/(T+C); 50 = same as control, ≤30 = antifeeding; conditions: for Antifeedant index (AFI): 30 or less = antifeeding activity
Description: A test for an antifeeding effect on insects was conducted by the leaf disk method. After wiping off the surface of a leaf of Ipomoea batatas with acetone in order to remove extraneous matter on the leaf, a disk having a diameter of 2 cm was cut out with a cork borer, avoiding the veins of the leaf. An acetone solution containing the predetermined amount of samples was applied to the disk, which was sufficiently air-dried. As a control, the same amount of acetone solution was used, and applied to the leaf disk in the same manner as in the sample. Two pieces each of the sample and the control were placed crosswise in a petri dish, and 15 larvae of Spodoptera litura FABRICIUS were set in the petri dish to put on the lid. The Spodoptera litura FABRICIUS used was the third or fourth instar. This is because the younger the larvae, the greater the effect they receive due to allelochemical. The first or second instar larvae prefer to eat a tender portion of the leaf because they cannot eat hard veins or fiber of the leaf. On the other hand, the fifth or sixth instar larvae move the leafdisk because they are well-built. Further, the antifeeding effect due to allelochemical is lowered because they eat any portion of the leaf. Therefore, it is better not to use the fifth or sixth instar larvae.
The petri dish was allowed to stand in a thermostatic chamber at 25 to 27° C. under light. Two to 5 hours later, 4 pieces of the leaf were taken out to convert them into black and white pictures with a photocopier. Using a scanner, the disk area was digitized, and then the disk area was expressed numerically at the pixel unit on a Mackintosh computer using a free soft NIH image.
The method of calculating an antifeedant index (AFI) is as follows. First, a standard area of an intact leaf is calculated. The ratio of the area of the leaf consumed by the larvae to the standard area of the leaf was calculated.
Antifeedant index=100×T/(T+C)
T: Total percentage of treated disk consumed
C: Total percentage of control disk consumed
If this index is 30 or less, the tested leaf has antifeeding activity. […] When the consumed area of the sample and that of the control is the same, the antifeedant index indicates 50.
Concerning scabequinone, remirol, cyperaquinone and methylremirol, the AFI and FR were calculated according to the method for testing an antifeeding effect.

[2] = tested on: Tyrophagus putrescentiae SCHRANK; experiment: dry film method in test tube, repelling of Tyrophagus putrescentiae; type: in vivo; conditions: 1 mg, 25° C., 1 day
Description: To 1 mg of cyperaquinone was added acetone and the resulting solution was charged in a test tube (a diameter of 1 cm). Thereafter, the solution was treated by the dry film method. (The method is as follows: a solution was charged at the bottom of a test tube. After applying the solution to the wall of the test tube, the solvent was removed to leave a sample on the wall of the test tube.) Fifty Tyrophagus putrescentiae SCHRANK were set in the test tube. After growing them at 25° C. for 1 day, the confirmation was conducted with a stereomicroscope.

plants = conditions: background statement; cited from earlier work
[3] = tested on: Plutella maculipennis CURTIS; experiment: test for an insecticidal effect (contact application); type: in vivo, Plutella maculipennis CURTIS larvae, third instar; conditions: for LD50: acetone solution applied to third instar larvae, 24 hours, probit method; for insecticidal effect / LD50 comparison (in words): versus scabequinone
Description: In order to test the insecticidal effect of remirol, methylremirol and scabequinone, acetone was added to each sample and the resulting acetone solution was applied to the third instar larvae of Plutella maculipennis CURTIS. Thereafter, Kaiwaredaikon (Raphanus sativus LINN, C.V. shijunichi) was fed to them as a feed and the number of survived larvae after 24 hours was counted. LD50 (lethal dose 50) was calculated by the probit method.

[4] = 1 mg/leaf, 50 = no difference from control

Row | SMILES | Antifeedant index (AFI) [1, 4] | FR (consumed ratio of treated leaves) ([1]; 0.1 mg/leaf) | FR (consumed ratio of treated leaves) ([1]; 0.25 mg/leaf) | Antifeedant index (AFI) ([1]; 0.25 mg/leaf) | FR (consumed ratio of treated leaves) ([1]; 1 mg/leaf) | mortality (in words) [2] | repelling effect (in words) [2] | anti-breeding effect on the plants (plants) | Antifeedant index (AFI) ([1]; 0.1 mg/leaf) | LD50 [3] [mg] | antifeeding effect (in words) ([1]; leaf disk method) | insecticidal effect / LD50 comparison (in words) [3]
1 | C=C(C)C1Cc2c(OC)cc(OC)cc2O1 (stereo not drawn) [2-isopopenyl-4,6-methoxy-coumaran, 2-isopropenyl-4,6-methoxycoumaran] | 26.1 |  |  |  |  |  |  |  |  |  |  | 
2 | C=C(C)c1cc2c(o1)C(=O)c1occ(C)c1C2=O [cyperaquinone] | 20.98 | 16.18 | 13.92 | 26.03 | 9.98 | Some of the Tyrophagus putrescentiae SCHRANK were dead | had a repelling effect on Tyrophagus putrescentiae SCHRANK |  |  |  |  | 
3 | O=C1C=CC(=O)c2c(O)cccc21 [juglone, reference compound] | 0 | 0 | 0 | 0 | 0 |  |  | strong anti-breedingeffect on the plants | 0 |  |  | 
4 | C=C(C)C1Cc2c(cc(OC)c(C(C)=O)c2OC)O1 (racemic) [racemic methylremirol] | 44.3 |  |  |  |  |  |  |  |  |  |  | 
5 | O=c1c(O)c(-c2ccc(O)c(O)c2)oc2cc(O)cc(O)c12 [quercetin, reference compound] | 2.07 | 15.96 | 13.07 | 25.08 | 0.66 |  |  |  | 25.04 |  |  | 
6 | Cc1coc2c1C(=O)C1=C(OCC(C(C)C)C1)C2=O (stereo not drawn) [scabequinone] | 0 | 1.61 | 0.47 | 2.16 |  |  |  |  | 4.22 | 1.371 | did quite well in the antifeeding effect; also recorded: by far superior to another commercially available product quercetin | 
7 | C=C(C)C1Cc2c(cc(OC)c(C(C)=O)c2OC)O1 (stereo not drawn) [methylremirol] | 0 |  |  |  |  |  |  |  |  | 1.0 |  | superior to scabequinone in the insecticidal effect
8 | C=C(C)C1Cc2c(cc(OC)c(C(C)=O)c2O)O1 (stereo not drawn) [remirol] | 8.57 | 11.33 | 10.31 | 19.02 | 3.84 |  |  |  |  | 0.125 |  | superior to scabequinone in the insecticidal effect
